Assay results: the NIST ThermoML archive (doi:10.1007/s10765-008-0497-7)
Numbers after ± are expanded uncertainties.

Conditions: Liquid

CCCCCCn1cc[n+](C)c1.F[P-](F)(F)(F)(F)F [1-hexyl-3-methylimidazolium hexafluorophosphate]
viscosity [mPa·s]
Conditions	298.15 K	323.15 K	343.15 K
100 kPa, Moving piston method	481 ± 29	121.4 ± 7.5	48.1 ± 3
101.33 kPa, Cone and plate viscometry	489.5 ± 40	–	–
101.33 kPa, Moving piston method	481.4 ± 5.7	121.4 ± 2.1	48.1 ± 1
2990 kPa, Moving piston method	523 ± 32	–	–
4000 kPa, Moving piston method	530 ± 32	127.1 ± 7.9	50.3 ± 3.1
7000 kPa, Moving piston method	556 ± 34	–	–
7600 kPa, Moving piston method	–	132.4 ± 8.3	52 ± 3.2
22000 kPa, Moving piston method	701 ± 42	–	–
25800 kPa, Moving piston method	–	164 ± 10	62.6 ± 3.9
35000 kPa, Moving piston method	833 ± 50	182.6 ± 12	68.6 ± 4.3
42100 kPa, Moving piston method	920 ± 55	–	–
50000 kPa, Moving piston method	1023 ± 62	–	–
50600 kPa, Moving piston method	–	218.9 ± 14	80.5 ± 5
60300 kPa, Moving piston method	1176 ± 71	241.7 ± 15	88.1 ± 5.5
76000 kPa, Moving piston method	–	280.8 ± 17	102.5 ± 6.4
93000 kPa, Moving piston method	–	334.2 ± 20	118.7 ± 7.4
101000 kPa, Moving piston method	–	364.2 ± 22	127.1 ± 8
126000 kPa, Moving piston method	–	483.1 ± 29	157.8 ± 10

CCCCCCCCCCn1cc[n+](C)c1.O=S(=O)([N-]S(=O)(=O)C(F)(F)F)C(F)(F)F
viscosity [mPa·s]
Conditions	298.15 K	323.15 K	343.15 K
100 kPa, Moving piston method	108.2 ± 6.5	36.2 ± 2.2	18.15 ± 1.1
101.33 kPa, Cone and plate viscometry	111.2 ± 4.5	–	–
101.33 kPa, Moving piston method	108.2 ± 1.1	36.3 ± 0.5	18.2 ± 0.23
2950 kPa, Moving piston method	111.5 ± 6.7	37.5 ± 2.3	18.55 ± 1.1
4270 kPa, Moving piston method	112.8 ± 6.8	38.2 ± 2.3	18.75 ± 1.1
6900 kPa, Moving piston method	117.6 ± 7.1	39.2 ± 2.4	19.3 ± 1.2
34600 kPa, Moving piston method	167.5 ± 10	53.6 ± 3.3	25.76 ± 1.6
47960 kPa, Moving piston method	199 ± 12	61.8 ± 3.8	29.15 ± 1.8
68870 kPa, Moving piston method	257 ± 16	76 ± 4.7	35.72 ± 2.2
83290 kPa, Moving piston method	301.1 ± 18	85.9 ± 5.3	40.47 ± 2.5
93030 kPa, Moving piston method	336.7 ± 20	94.3 ± 5.8	44.56 ± 2.7
109800 kPa, Moving piston method	402.7 ± 24	110.8 ± 6.9	51.26 ± 3.1
122570 kPa, Moving piston method	459.8 ± 28	122.6 ± 7.7	56.74 ± 3.5

CCn1cc[n+](C)c1.O=S(=O)([N-]S(=O)(=O)C(F)(F)F)C(F)(F)F
viscosity [mPa·s]
Conditions	298.15 K	323.15 K	343.15 K
100 kPa, Moving piston method	34.4 ± 2.1	15.6 ± 0.9	9.6 ± 0.6
101.33 kPa, Cone and plate viscometry	34.1 ± 1	–	–
101.33 kPa, Moving piston method	34.29 ± 0.26	15.6 ± 0.2	9.55 ± 0.09
2820 kPa, Moving piston method	35 ± 2.1	16.1 ± 1	9.8 ± 0.6
4190 kPa, Moving piston method	35.3 ± 2.1	16.4 ± 1	9.9 ± 0.6
7360 kPa, Moving piston method	36.2 ± 2.2	16.9 ± 1	10.2 ± 0.6
35560 kPa, Moving piston method	46.8 ± 2.8	22 ± 1.3	12.6 ± 0.8
48760 kPa, Moving piston method	53.3 ± 3.2	24.9 ± 1.5	13.8 ± 0.8
69300 kPa, Moving piston method	65 ± 3.9	30.8 ± 1.9	16 ± 1
85200 kPa, Moving piston method	79.4 ± 4.8	36.7 ± 2.2	17.7 ± 1.1
96500 kPa, Moving piston method	90 ± 5.4	40.1 ± 2.4	19.2 ± 1.2
110550 kPa, Moving piston method	108.6 ± 6.5	44.8 ± 2.7	21.2 ± 1.3
121530 kPa, Moving piston method	–	49.5 ± 3	–
122430 kPa, Moving piston method	131.5 ± 7.9	–	–
125530 kPa, Moving piston method	–	–	23.4 ± 1.4

CCCCCCn1cc[n+](C)c1.F[B-](F)(F)F [1-hexyl-3-methylimidazolium tetrafluoroborate]
viscosity [mPa·s]
Conditions	Cone and plate viscometry	Moving piston method
298.15 K, 100 kPa	–	202 ± 12
298.15 K, 101.33 kPa	210.4 ± 12	202.4 ± 2.1
298.15 K, 2640 kPa	–	209 ± 13
298.15 K, 4290 kPa	–	213 ± 13
298.15 K, 6950 kPa	–	215 ± 13
298.15 K, 34590 kPa	–	299 ± 18
298.15 K, 48400 kPa	–	387 ± 23
298.15 K, 68140 kPa	–	478 ± 29
298.15 K, 82970 kPa	–	532 ± 32
298.15 K, 96820 kPa	–	621 ± 38
298.15 K, 108550 kPa	–	743 ± 45
298.15 K, 117850 kPa	–	819 ± 50
323.15 K, 100 kPa	–	58.5 ± 3.6
323.15 K, 101.33 kPa	–	58.5 ± 1
323.15 K, 2600 kPa	–	59.7 ± 3.7
323.15 K, 4130 kPa	–	61 ± 3.8
323.15 K, 6850 kPa	–	62 ± 3.8
323.15 K, 34520 kPa	–	79.9 ± 5
323.15 K, 48180 kPa	–	91.1 ± 5.7
323.15 K, 68990 kPa	–	108.2 ± 6.8
323.15 K, 82710 kPa	–	121.8 ± 7.6
323.15 K, 96550 kPa	–	136 ± 8.6
323.15 K, 110120 kPa	–	152.4 ± 9.7
323.15 K, 121810 kPa	–	165 ± 11
343.15 K, 100 kPa	–	27 ± 1.7
343.15 K, 101.33 kPa	–	27 ± 0.4
343.15 K, 3100 kPa	–	27.6 ± 1.7
343.15 K, 4100 kPa	–	27.5 ± 1.7
343.15 K, 7100 kPa	–	28 ± 1.7
343.15 K, 35100 kPa	–	35.2 ± 2.2
343.15 K, 48340 kPa	–	39.2 ± 2.4
343.15 K, 68140 kPa	–	45 ± 2.8
343.15 K, 83080 kPa	–	49.9 ± 3.1
343.15 K, 96550 kPa	–	55.1 ± 3.4
343.15 K, 110120 kPa	–	60.8 ± 3.8
343.15 K, 121810 kPa	–	65 ± 4

CCCCCC[n+]1ccn(C)c1.O=S(=O)([N-]S(=O)(=O)C(F)(F)F)C(F)(F)F
viscosity [mPa·s]
Conditions	298.15 K	323.15 K	343.15 K
100 kPa, Moving piston method	70.96 ± 4.3	24.9 ± 1.5	14.07 ± 0.85
101.33 kPa, Cone and plate viscometry	71.5 ± 2.4	–	–
101.33 kPa, Moving piston method	71 ± 0.7	24.9 ± 0.3	14.1 ± 0.4
2990 kPa, Moving piston method	71.04 ± 4.3	25.81 ± 1.6	14.12 ± 0.86
4000 kPa, Moving piston method	71.38 ± 4.3	25.98 ± 1.6	14.22 ± 0.86
7000 kPa, Moving piston method	73.71 ± 4.4	26.87 ± 1.6	14.6 ± 0.9
35000 kPa, Moving piston method	103.4 ± 6.2	35.96 ± 2.2	18.62 ± 1.1
50000 kPa, Moving piston method	122.2 ± 7.4	41.57 ± 2.5	21.1 ± 1.3
70000 kPa, Moving piston method	152.2 ± 9.2	50.43 ± 3.1	25.17 ± 1.5
83000 kPa, Moving piston method	173.2 ± 10	56.96 ± 3.5	28.12 ± 1.7
93000 kPa, Moving piston method	196.3 ± 12	62.11 ± 3.8	30.42 ± 1.9
110000 kPa, Moving piston method	237.6 ± 14	71.6 ± 4.4	34.65 ± 2.1
124000 kPa, Moving piston method	275.7 ± 17	80.46 ± 5	38.34 ± 2.3

CCCCn1cc[n+](C)c1.F[P-](F)(F)(F)(F)F [1-butyl-3-methylimidazolium hexafluorophosphate]
298.15 K, Moving piston method
Conditions	viscosity [mPa·s]
100 kPa	270.9 ± 21
3400 kPa	289.7 ± 23
6900 kPa	305.7 ± 24
12100 kPa	329.2 ± 26
17200 kPa	353.7 ± 29
24700 kPa	396.3 ± 33
25700 kPa	398.2 ± 33
41400 kPa	473.8 ± 41
50600 kPa	543.4 ± 49
